Results as given in patent US12496298B2, “Natural killer cells” (Imperial College Innovations Limited, priority 2017, dated 2025).
Entries after “also recorded” stand apart in the source; their conditions may differ.

Key:
[1] = test system: HPCs isolated from wild type, E4bp4 knockout and heterozygous mice; experiment: NK cell production from HPCs isolated from WT, E4bp4 Het and E4bp4 KO mice; format: cell-based, mouse
Method: FIG. 7: HPCs isolated from either wild type (WT), E4bp4 knockout (KO) or heterozygous (Het) mice were cultured with the addition of 5 or 10 μM SR8278. At Day 9, percentage of NK cells was quantified using flow cytometry. Graph showing relative mature mouse NK cell (NK1.1^+ CD3^−) production compared to the ‘No drug’ control in experiments with (A) WT, (B) Het and (C) E4bp4 KO mice. (D) Representative flow cytometry results with percentage of NK cells shown for the addition of 10 μM SR8278. Results were averaged from two experiments with four repeats each and the error bars represent the mean+SD. Asterisks indicate significant differences from the two annotated results (* is P≤0.01 and ** is P≤0.001) based on Mann-Whitney test.
Following the experiment with GSK4112, it was predicted that SR8278 acts through the pathway involving REV-ERB and E4bp4. […] Cell cultures were performed as previously (FIG. 3), where SR8278 was added on Day 2 of the culture and NK cell production was measured by flow cytometry. […]
Cells to be analysed by flow cytometry were passed through 40 μm cell strainers to remove clumps and washed with PBS buffer, centrifuged at 800 g for 2 minutes and resuspended in 100 μl fluorescent activated cell sorting (FACS) buffer (PBS plus 1% BSA) with appropriate fluorochrome conjugated antibodies at a dilution of 1 in 300. […]

Human CD34+ cells = experiment: Toxicity to human CD34+ cells in NK cell culture; format: cell-based
Description: The hypothesis that SR8278 increases NK cells production would not have any potential therapeutic value if it was not also true for human NK cell production. Therefore, the effect of SR8278 on human NK cell production from human HPCs was examined. Human HPCs were obtained as the CD34^+ population purified from umbilical cord blood from collaborators at the Anthony Nolan Research Institute, London. Human NK cell development goes through a similar developmental pathway to mouse NK cell development. […]
CD34^+ umbilical cord blood progenitor cells were provided by Anthony Nolan Research Institute, University College London. […] Cells were thawed, counted and then plated on EL08.1D2 plates prepared previously at a concentration of 1000 cells/well in human NK cells differentiation medium (Alpha-MEM plus 20% Human AB serum (Invitrogen), 50 μM β-Mercaptoethanol and 1% P/S along with 5 ng/ml human-IL-3 (Peprotech), 20 ng/ml human-IL-7 (Peprotech), 10 ng/ml human-Flt3-L (Peprotech), 20 ng/ml human-SCF (Peprotech) and 10 ng/ml human-IL-15 (Peprotech). Note that human-IL-3 is only needed for the first week of culture. Cells were left in the culture at 37° C., 5% CO2 for 14 or 16 days with a change of human NK differentiation medium at day 7 and 12.

SMILES: CCOC(=O)C1Cc2ccccc2CN1C(=O)c1ccc(SC)s1 (stereo not shown) [SR8278, 1,2,3,4-Tetrahydro-2-[[5-(methylthio)-2-thienyl]carbonyl]-3-isoquinolinecarboxylic acid ethyl ester]
- percentage of NK cells produced ([1]; HPCs from E4bp4 KO mice, regardless of concentration): absent of NK cells; also recorded: no effect
- percentage of NK cells produced compared to 'No drug' control ([1]; HPCs from WT mice, 5 μM and 10 μM added Day 2): largest significant increase
- toxicity to human CD34+ cells (Human CD34+ cells; 5 μM): not toxic
- toxicity to human CD34+ cells (Human CD34+ cells; 10 μM): completely toxic
